In patent US12606554B2, “Compounds and pharmaceutical compositions thereof for the treatment of diseases” (ONCO3R Therapeutics BV, priority 2019, dated 2026):
pEC50, pIC50: −log10 of the molar value.

How the values were obtained:
[1] = target: T1, SIK1 (Homo sapiens, UniProt P57059); assay: ADP-Glo kinase assay, SIK1; format: biochemical; details: AMARA peptide 45 μM, 5 μM ATP, 120 min, read-out: SIM1 IC50
T1 construct: purchased Carna Biosciences 02-131
From the text: (§1) The ADP-Glo™ kinase assay is a luminescent technology assay which measures the ADP formed from a kinase reaction. In this specific study, the kinase reactions consisted of the phosphorylation of the AMARA peptide substrate (SignalChem, Cat #A11-58) by SIK1 (Carma Biosciences, Cat #02-131), SIK2 (ThermoFisher Scientific, Cat #PV4792) or SIK3 (SignalChem, Cat #S12-11G-100). In a second step the kinase reactions are terminated and all the remaining ATP is depleted. In a final step the ADP is converted into ATP and this newly synthesized ATP is measured by using a luciferase/luciferin reaction. The generated light is measured using an Envision plate reader, wherein the luminescent signal obtained positively correlates with the kinase activity.
(§2) The test compounds are prepared as a serial dilution of 10 point dose responses with ⅕ dilution steps in 100% DMSO starting from 2 mM highest concentration, diluted 1/20 in water and […] is transferred to the assay plates (PerkinElmer Inc., Cat #6007290).
(§3) 1% DMSO and 10 μM staurosporine final concentrations are used as negative and positive controls.
(§4) 2 μL enzyme-substrate mixture is added to the assay plates.
(§5) The reaction is started by adding 2 μL diluted ATP on the assay plates. Plates are centrifuged for a few seconds at 1000 rpm and gently shaken for 2 min followed by an incubation at RT for 120 min.
(§6) The reactions are stopped and the unconsumed ATP is depleted by adding 5 μL ADP-Glo Reagent (Promega, Cat #V9121B) to the reaction. The plates are centrifuged for a few seconds at 1000 rpm and incubated at RT for […] (ATP depletion).
(§7) The ADP is converted to ATP and luciferase and luciferin is introduced to detect ATP by adding 10 μL Kinase Detection Reagent (Promega, Cat #V913B+V914r) to the reaction. The plates are centrifuged for a few seconds at 1000 rpm and incubated at RT for 30 min (ADP detection).
(§8) Luminescence is measured on an Envision plate reader (PerkinElmer Inc.).
(§9) Raw data are generated following the read-out performed on the TopCount, plotted to generate dose response curves to calculate percentage inhibition (PIN) and average IC50 for each SIK homologue which are reported in the table below.

[2] = target: T2, SIK2 (Homo sapiens, UniProt Q9H0K1); assay: ADP-Glo kinase assay, SIK2; format: biochemical; details: AMARA peptide 45 μM, 5 μM ATP, 120 min
T2 construct: purchased ThermoFisher Scientific PV4792
T2 sequence (Q9H0K1 whole entry): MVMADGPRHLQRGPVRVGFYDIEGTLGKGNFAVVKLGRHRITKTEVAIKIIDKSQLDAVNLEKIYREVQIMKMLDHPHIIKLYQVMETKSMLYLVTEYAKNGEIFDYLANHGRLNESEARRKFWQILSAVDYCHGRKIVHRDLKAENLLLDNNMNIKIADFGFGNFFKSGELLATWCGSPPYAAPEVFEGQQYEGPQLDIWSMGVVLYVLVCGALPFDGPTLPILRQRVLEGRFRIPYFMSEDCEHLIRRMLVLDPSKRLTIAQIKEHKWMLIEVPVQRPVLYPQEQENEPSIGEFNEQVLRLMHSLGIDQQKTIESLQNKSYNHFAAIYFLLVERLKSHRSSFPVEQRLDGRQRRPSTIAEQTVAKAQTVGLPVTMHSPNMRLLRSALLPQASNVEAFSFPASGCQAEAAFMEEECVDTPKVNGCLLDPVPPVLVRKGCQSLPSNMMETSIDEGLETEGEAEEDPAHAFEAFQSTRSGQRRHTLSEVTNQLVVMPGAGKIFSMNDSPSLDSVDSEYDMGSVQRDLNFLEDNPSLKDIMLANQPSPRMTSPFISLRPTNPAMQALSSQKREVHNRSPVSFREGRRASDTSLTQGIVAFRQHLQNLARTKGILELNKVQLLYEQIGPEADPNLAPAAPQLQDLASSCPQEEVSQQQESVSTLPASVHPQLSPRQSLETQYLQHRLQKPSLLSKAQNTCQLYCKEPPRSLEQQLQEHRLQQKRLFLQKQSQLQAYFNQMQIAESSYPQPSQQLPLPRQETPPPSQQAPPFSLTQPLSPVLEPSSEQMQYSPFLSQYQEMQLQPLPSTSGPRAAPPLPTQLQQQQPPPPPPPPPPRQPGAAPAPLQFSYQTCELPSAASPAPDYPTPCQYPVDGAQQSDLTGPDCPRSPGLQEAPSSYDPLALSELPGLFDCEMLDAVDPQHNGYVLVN
From the text: as §1, §2, §3, §4, §5, §6, §7, §8, §9

[3] = target: T3, SIK3 (Homo sapiens, UniProt Q9Y2K2); assay: ADP-Glo kinase assay, SIK3; format: biochemical; details: AMARA peptide 45 μM, 5 μM ATP, 120 min
T3 construct: purchased SignalChem S12-11G-100
T3 sequence (Q9Y2K2 whole entry): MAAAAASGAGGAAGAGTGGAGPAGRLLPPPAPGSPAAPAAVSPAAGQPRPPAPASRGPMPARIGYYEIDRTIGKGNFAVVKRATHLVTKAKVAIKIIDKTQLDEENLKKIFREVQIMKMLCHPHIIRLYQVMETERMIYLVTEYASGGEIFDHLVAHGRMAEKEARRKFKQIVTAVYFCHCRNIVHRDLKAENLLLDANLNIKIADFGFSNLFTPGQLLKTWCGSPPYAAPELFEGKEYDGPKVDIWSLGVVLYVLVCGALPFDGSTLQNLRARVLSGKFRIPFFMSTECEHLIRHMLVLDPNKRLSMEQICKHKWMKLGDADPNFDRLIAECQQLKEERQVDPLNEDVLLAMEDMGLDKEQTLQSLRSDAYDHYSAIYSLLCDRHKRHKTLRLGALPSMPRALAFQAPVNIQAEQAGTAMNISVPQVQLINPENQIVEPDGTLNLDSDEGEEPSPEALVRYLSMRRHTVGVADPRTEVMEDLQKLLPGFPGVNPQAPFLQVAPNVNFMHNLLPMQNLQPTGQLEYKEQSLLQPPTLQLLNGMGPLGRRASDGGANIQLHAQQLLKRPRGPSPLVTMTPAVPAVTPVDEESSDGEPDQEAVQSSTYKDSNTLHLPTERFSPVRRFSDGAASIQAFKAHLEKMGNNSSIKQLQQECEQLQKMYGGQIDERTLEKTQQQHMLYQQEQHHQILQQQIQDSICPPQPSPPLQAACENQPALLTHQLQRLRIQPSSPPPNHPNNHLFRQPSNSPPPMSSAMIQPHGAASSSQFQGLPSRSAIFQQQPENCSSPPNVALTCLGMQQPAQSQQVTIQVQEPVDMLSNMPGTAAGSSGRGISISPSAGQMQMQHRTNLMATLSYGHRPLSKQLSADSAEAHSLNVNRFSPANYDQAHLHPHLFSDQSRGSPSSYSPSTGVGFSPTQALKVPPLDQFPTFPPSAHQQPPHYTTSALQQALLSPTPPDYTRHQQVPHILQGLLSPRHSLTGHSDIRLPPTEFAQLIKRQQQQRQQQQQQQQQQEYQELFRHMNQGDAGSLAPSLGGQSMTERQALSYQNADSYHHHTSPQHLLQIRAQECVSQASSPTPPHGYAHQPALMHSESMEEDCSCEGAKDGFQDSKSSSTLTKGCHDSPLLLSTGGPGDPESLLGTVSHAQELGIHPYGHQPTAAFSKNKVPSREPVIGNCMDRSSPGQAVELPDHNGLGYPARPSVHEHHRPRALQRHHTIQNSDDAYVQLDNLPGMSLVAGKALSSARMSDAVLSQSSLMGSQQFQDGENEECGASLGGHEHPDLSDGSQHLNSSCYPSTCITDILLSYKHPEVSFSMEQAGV
From the text: as §1, §2, §3, §4, §5, §6, §7, §8, §9

[4] = tested on: LPS-induced TNFα in monocytes; assay: Monocytes assay: LPS-triggered TNFα (ELISA); format: cell-based; details: Homo sapiens, Monocyte, LPS 200 ng/mL, supernatant after 4 h
Description: SIK inhibition inhibits TNFα and increases IL-10 release in LPS triggered monocyte-derived macrophages (MdM) and dendritic cells (MdDCs) (Clark et al. 2012; Sundberg et al. 2014; Ozanne et al. 2015). This assay evaluates illustrative compounds of the invention for their inhibition of LPS-induced TNFα and LPS triggered IL-10 secretion in monocytes.
PBMCs are isolated from human blood samples (buffycoats). The buffy coat is aseptically transferred into a 50 mL Falcon tube, and diluted ½ in PBS. Falcon tubes are filled with 20 mL Lymphoprep™, on top of which 25 mL of the buffy coat is carefully added, tubes are centrifuged for 35 min at 400 g in temperature controlled centrifuge, without brake, at 25° C. PBMCs are aspirated from the white interface layer between sample and Lymphoprep™. PBMCs are washed five times in PBS. Cells are resuspended in RPMI 1640 complete medium supplemented with 10% FBS, 1% P/S, and cell density is determined using a hematologic analyzer (Sysmex XS-500i).
PBMCs are centrifuged at 300×g for 10 min and resuspended at a density of 1.0*10^7 cells/80 μL Miltenyi buffer (PBS, pH 7.4, 1% FBS, 2 mM EDTA).
Starting from this point of the protocol all steps are performed on ice. 20 μL of CD14+ micro-beads are added per 1.0*10^7 cells, the tube is mixed and incubated for 15 min in the fridge at 4° C. Cell suspension volume is adjusted to total volume of 100 mL using Miltenyi buffer, mixed gently and subsequently centrifuged for 10 min at 300×g. Supernatant is discarded and cell pellet is resuspended in 12 mL of Miltenyi buffer.
Four LS columns are placed in the MACS Separator (magnet) from Miltenyi Biotec, and are prewet by rinsing with 3 mL of MACS buffer per column. Three mL of cell suspension is added onto the column (max 1*10^8 of labelled cells/column), and columns are subsequently washed 3 times with 3 mL of Miltenyi buffer.
The columns are removed from the magnets, and 5 mL of Miltenyi buffer are added to the column to flush out the CD14+ fraction by pushing the plunger into the column. The flushed fractions are collected in a fresh 50 mL Falcon and volume is adjusted to 30 mL using Miltenyi buffer, cells are centrifuged for 10 min at 300×g. The obtained cell pellet is resuspended in 10 mL RPMI w/o FBS, and cell density is determined using a hematologic analyser (Sysmex XS-500i). 100 000 cells are seeded in 80 μL per well of a 96-well plate in RPMI 1640 medium supplemented with 10% FBS, 1% P/S.
A compound dilution plate is made in 100% DMSO by 3-fold dilution of 10 mM stock solution. An intermediate dilution plate (10× final concentration) is made by diluting the compound dilution plate 50-fold in RPMI medium.
10 μL of the 10× final concentration compound is added to the cells and incubated for 1 h at 37° C. before addition of trigger. […]

[5] = mice; Wein et al. 2016; cited from earlier work

T1 sequence (P57059 whole entry): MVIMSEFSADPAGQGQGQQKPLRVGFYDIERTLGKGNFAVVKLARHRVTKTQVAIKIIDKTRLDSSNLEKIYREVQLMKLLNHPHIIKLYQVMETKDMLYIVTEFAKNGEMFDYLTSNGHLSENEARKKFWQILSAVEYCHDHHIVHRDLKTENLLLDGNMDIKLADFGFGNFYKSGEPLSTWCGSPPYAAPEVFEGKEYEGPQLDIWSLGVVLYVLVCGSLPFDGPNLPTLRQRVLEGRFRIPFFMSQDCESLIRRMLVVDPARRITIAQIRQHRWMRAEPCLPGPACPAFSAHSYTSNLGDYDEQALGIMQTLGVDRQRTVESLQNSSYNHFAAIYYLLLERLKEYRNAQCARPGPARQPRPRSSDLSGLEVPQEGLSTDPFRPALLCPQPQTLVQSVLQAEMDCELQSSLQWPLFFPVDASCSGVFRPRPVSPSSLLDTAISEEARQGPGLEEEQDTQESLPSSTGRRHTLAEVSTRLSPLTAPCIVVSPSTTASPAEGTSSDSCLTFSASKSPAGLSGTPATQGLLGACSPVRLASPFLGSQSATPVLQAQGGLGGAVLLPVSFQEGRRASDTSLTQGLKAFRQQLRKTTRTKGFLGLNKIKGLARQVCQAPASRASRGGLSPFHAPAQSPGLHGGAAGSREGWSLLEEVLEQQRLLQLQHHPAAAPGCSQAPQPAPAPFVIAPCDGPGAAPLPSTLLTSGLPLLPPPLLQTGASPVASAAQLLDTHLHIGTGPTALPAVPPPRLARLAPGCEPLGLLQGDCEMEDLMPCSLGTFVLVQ

For `COc1cc(-c2cnn3cc(OCCN4CCOCC4)cnc23)cc2c1C(=O)N(CC(F)(F)F)CC2` [Cpd 4, 8-methoxy-6-[6-(2-morpholinoethoxy)pyrazolo[1,5-a]pyrimidin-3-yl]-2-(2,2,2-trifluoroethyl)-3,4-dihydroisoquinolin-1-one], the pIC50 [1] was less than 6.30, the pIC50 [2] was 7.00 to 8.00 and the pIC50 [3] was 7.00 to 8.00.

In the case of `COc1cc(-c2cnc3cc(OCCN4CCOCC4)cnn23)cc2c1C(=O)N(CC(F)(F)F)CC2` [Cpd 5, 8-methoxy-6-[7-(2-morpholinoethoxy)imidazo[1,2-b]pyridazin-3-yl]-2-(2,2,2-trifluoroethyl)-3,4-dihydroisoquinolin-1-one], the pIC50 [1] was less than 6.30, the pIC50 [2] was 7.00 to 8.00 and the pIC50 [3] was 7.00 to 8.00.

`COc1cc(-c2cnn3cc(OC(C)(C)CN4CC5(COC5)C4)ccc23)cc(OC(F)F)c1C(=O)N[C@@H]1C[C@@H]1F` [Cpd 6, 2-(difluoromethoxy)-4-[6-[1,1-dimethyl-2-(2-oxa-6-azaspiro[3.3]heptan-6-yl)ethoxy]pyrazolo[1,5-a]pyridin-3-yl]-N-[(2S)-2-fluorocyclopropyl]-6-methoxy-benzamide] gave a pIC50 [1] of less than 6.30, a pIC50 [2] of 7.00 to 8.00 and a pIC50 [3] of 7.00 to 8.00. It also gave a pEC50 [4] of 6.00 to 7.00.

For `COc1ccc(N2C(=O)N(c3c(C)cccc3Cl)Cc3cnc(Nc4ccc(C5CCN(C)CC5)cc4OC)nc32)nc1` [YKL-05-099], the “bone formation and bone mass” value [5] is listed as “increased bone formation and bone mass”.
